Molecular target: Amyloid-beta precursor protein (Homo sapiens) (UniProt P05067)
Assay: Binding affinity to amyloid beta (1 to 40 residues) (unknown origin) aggregation assessed as fold increase in fluorescence intensity

Chain of Amyloid-beta precursor protein (Homo sapiens) (P05067 whole entry, the tested form may be a part): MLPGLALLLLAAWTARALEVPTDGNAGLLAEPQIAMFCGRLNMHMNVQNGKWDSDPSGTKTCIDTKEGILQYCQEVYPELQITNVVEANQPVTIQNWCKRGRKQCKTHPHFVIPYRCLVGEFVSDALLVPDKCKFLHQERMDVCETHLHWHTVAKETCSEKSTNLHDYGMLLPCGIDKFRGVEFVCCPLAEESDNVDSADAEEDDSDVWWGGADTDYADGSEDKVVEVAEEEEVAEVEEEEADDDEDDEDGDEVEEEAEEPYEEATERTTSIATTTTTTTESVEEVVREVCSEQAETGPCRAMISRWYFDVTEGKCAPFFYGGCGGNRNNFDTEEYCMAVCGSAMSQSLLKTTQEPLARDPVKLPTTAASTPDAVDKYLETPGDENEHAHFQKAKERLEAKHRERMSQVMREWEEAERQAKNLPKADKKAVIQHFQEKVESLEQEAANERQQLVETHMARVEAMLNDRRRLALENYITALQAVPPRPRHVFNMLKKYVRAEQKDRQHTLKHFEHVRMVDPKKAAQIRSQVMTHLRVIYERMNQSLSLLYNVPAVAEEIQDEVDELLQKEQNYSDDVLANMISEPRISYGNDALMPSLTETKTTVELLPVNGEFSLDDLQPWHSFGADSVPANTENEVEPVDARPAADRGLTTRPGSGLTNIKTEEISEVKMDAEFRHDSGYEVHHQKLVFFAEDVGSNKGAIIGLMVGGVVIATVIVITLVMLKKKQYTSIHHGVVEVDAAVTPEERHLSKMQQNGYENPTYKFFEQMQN

fold change (FC): 70
SMILES: CN(C)c1ccc(/C=C/C2=CC(/C=C/c3ccc(N(C)C)cc3)=[O+][B-](F)(F)O2)cc1
